Data published in patent US20260285903A1, “SYNTHESIZED BIOLOGICALLY ACTIVE COMPOUNDS AND METHODS OF MAKING AND USING” (Georgia State University Research Foundation, Inc., priority 2023, published 2026).

Experiments:
[1] = Incubation with mouse intestinal microsomes (HPLC); type: in vitro ADME; conditions: incubation for 30 minutes
From the text: The biopharmaceutical properties of the synthesized M13 (5-glutathione-6-shogaol) were characterized.

NF-κB signaling pathway = assay: NF-κB-dependent luciferase activity in NF-κB/293/GFP-Luc cells treated with TNF-α; type: cell-based; conditions: for RLU (% with TNFα): MLY compounds; for RLU (% with TNFα) / reduction of NF-κB activation: TNF-α 10 ng/ml, 18 hours; for Activity compared with M13: Table 2B; for reduction of NF-κB activation / RLU (% with TNF-α), range: 20 µM; for IC50: TNF-α stimulated, FIG. 9, read-out: dose to reduce the NF-κB activation by 50%; for RLU (% with TNF-α), range: Table 2B bins, 1080 min
Method: First, the anti-inflammatory activity of MLY compounds on the NF-κB signaling pathway was examined using the NF-xB/293/GFP-LucTnl cell line (System Biosciences). This cell line is specifically designed for use in quantitatively monitoring (by luciferase intensity) transcriptional activation related to the NF-κB signal transduction pathway in vitro. Treatment of NF-κB/293/GFP-Luc™ cells with 10 ng/ml TNF-α for 18 hours induced strong activation of the NF-κB signal transduction pathway (FIGS. 8A and 8B). […] MLY2 and MLY8 induced a strongest 90% reduction of NF-κB activation the anti-inflammatory effect of MLY 2 and 8 was dose-related (FIG. 9). The dose to reduce the NF-κB activation by 50% was […] for M13, 5 μM for MLY2 and 11 μM for MLY8 (FIG. 9).

SMILES | relative content retained of the input [1] [%] | RLU (% with TNFα) (NF-κB signaling pathway) [%] | Activity compared with M13 (NF-κB signaling pathway) | reduction of NF-κB activation (NF-κB signaling pathway) [%] | IC50 (NF-κB signaling pathway) [µM] | RLU (% with TNF-α), range (NF-κB signaling pathway) [%]
CCCCC/C=C/C(=O)CCc1ccc(O)c(OC)c1 [6-shogaol, reference compound] | 61 | – | – | – | – | –
CCCCCC(CC(=O)CCc1ccc(O)c(OC)c1)SC[C@H](NC(=O)[C@@H](N)CCC(=O)O)C(=O)N[C@@H](C)C(=O)O (stereo partly drawn) [MLY-1, Glu(alpha)-Cys(6-shogaol)-Ala] | – | 30.3 ± 11.78 | >>M13 (15~35%) | – | – | –
CCCCCC(CC(=O)CCc1ccc(O)c(OC)c1)SC[C@H](NC(=O)[C@@H](N)CCC(=O)O)C(=O)N[C@@H](CC(C)C)C(=O)O (stereo partly drawn) [MLY-2, Glu(alpha)-Cys(6-shogaol)-Leu] | – | 0.78 ± 0.54 | >>>>M13 (0~5%) | 90 | 5 | –
CCCCCC(CC(=O)CCc1ccc(O)c(OC)c1)SC[C@H](NC(=O)[C@@H](N)CCC(=O)O)C(=O)N1CCC[C@H]1C(=O)O (stereo partly drawn) [MLY-3, Glu(alpha)-Cys(6-shogaol)-Pro] | – | 6.54 ± 8.56 | >M13 (35%~70%) | – | – | –
CCCCCC(CC(=O)CCc1ccc(O)c(OC)c1)SC[C@H](NC(=O)[C@@H](N)CCC(=O)O)C(=O)N[C@@H](Cc1c[nH]c2ccccc12)C(=O)O (stereo partly drawn) [MLY-4, Glu(alpha)-Cys(6-shogaol)-Trp] | – | 80.65 ± 2.22 | = M13 (70%~85%) | – | – | –
CCCCCC(CC(=O)CCc1ccc(O)c(OC)c1)SC[C@H](NC(=O)[C@@H](N)CCC(=O)O)C(=O)N[C@@H](Cc1ccc(O)cc1)C(=O)O (stereo partly drawn) [MLY-5, Glu(alpha)-Cys(6-shogaol)-Tyr] | – | 67.18 ± 3.27 | >M13 (35%~70%) | – | – | –
CCCCCC(CC(=O)CCc1ccc(O)c(OC)c1)SC[C@H](NC(=O)[C@@H](N)CC(=O)O)C(=O)N[C@@H](Cc1ccccc1)C(=O)O (stereo partly drawn) [MLY-6, Asp(alpha)-Cys(6-shogaol)-Phe] | – | 50.7 ± 1.38 | >M13 (35%~70%) | – | – | –
CCCCCC(CC(=O)CCc1ccc(O)c(OC)c1)SC[C@H](NC(=O)[C@@H](N)CC(=O)O)C(=O)N[C@@H](CC(C)C)C(=O)O (stereo partly drawn) [MLY-7, Asp(alpha)-Cys(6-shogaol)-Leu] | – | 38.6 ± 3.96 | >M13 (35%~70%) | – | – | –
CCCCCC(CC(=O)CCc1ccc(O)c(OC)c1)SC[C@H](NC(=O)[C@@H](N)CC(=O)O)C(=O)N[C@@H](CCSC)C(=O)O (stereo partly drawn) [MLY-8, Asp(alpha)-Cys(6-shogaol)-Met] | – | 8.04 ± 4.06 | >>>M13 (5%~15%) | 90 | 11 | –
CCCCCC(CC(=O)CCc1ccc(O)c(OC)c1)SC[C@H](NC(=O)[C@@H](N)CC(=O)O)C(=O)N1CCC[C@H]1C(=O)O (stereo partly drawn) [MLY-9, Asp(alpha)-Cys(6-shogaol)-Pro] | – | 92.85 ± 2.15 | <M13 (>90%) | – | – | >90
CCCCCC(CC(=O)CCc1ccc(O)c(OC)c1)SC[C@H](NC(=O)[C@@H](N)CC(=O)O)C(=O)N[C@H](C(=O)O)C(C)C (stereo partly drawn) [MLY-10, Asp(alpha)-Cys(6-shogaol)-Val] | – | 66.68 ± 11.06 | >M13 (35%~70%) | – | – | –
CCCCCC(CC(=O)CCc1ccc(O)c(OC)c1)SC[C@H](NC(=O)[C@@H](N)CC(=O)O)C(=O)N[C@@H](Cc1c[nH]c2ccccc12)C(=O)O (stereo partly drawn) [MLY-11, Asp(alpha)-Cys(6-shogaol)-Trp] | – | 24.75 ± 0.79 | >>M13 (15~35%) | – | – | –
CCCCCC(CC(=O)CCc1ccc(O)c(OC)c1)SC[C@H](NC(=O)[C@@H](N)CC(=O)O)C(=O)N[C@@H](Cc1ccc(O)cc1)C(=O)O (stereo partly drawn) [MLY-12, Asp(alpha)-Cys(6-shogaol)-Tyr] | – | 47.43 ± 5.5 | >M13 (35%~70%) | – | – | –
CCCCCC(CC(=O)CCc1ccc(O)c(OC)c1)SC[C@H](NC(=O)[C@@H](N)CCC(=O)O)C(=O)N[C@@H](CCSC)C(=O)O (stereo partly drawn) [MLY-13, Glu(alpha)-Cys(6-shogaol)-Met] | – | 60.22 ± 13.55 | >M13 (35%~70%) | – | – | –
CCCCCC(CC(=O)CCc1ccc(O)c(OC)c1)SC[C@H](NC(=O)[C@@H](N)CC(=O)O)C(=O)N[C@H](C(=O)O)[C@@H](C)CC (stereo partly drawn) [MLY-14, Asp(alpha)-Cys(6-shogaol)-Ile] | – | 80.67 ± 11.28 | = M13 (70%~85%) | – | – | –
CCCCCC(CC(=O)CCc1ccc(O)c(OC)c1)SC[C@H](NC(=O)[C@@H](N)CCC(=O)O)C(=O)N[C@@H](Cc1ccccc1)C(=O)O (stereo partly drawn) [MLY-15, Glu(alpha)-Cys(6-shogaol)-Phe] | – | 47.98 ± 9.35 | >M13 (35%~70%) | – | – | –
CCCCCC(CC(=O)CCc1ccc(O)c(OC)c1)SC[C@H](NC(=O)[C@@H](N)CCC(=O)O)C(=O)N[C@H](C(=O)O)[C@@H](C)CC (stereo partly drawn) [MLY-16, Glu(alpha)-Cys(6-shogaol)-Ile] | – | 68.19 ± 4.46 | >M13 (35%~70%) | – | – | –
CCCCCC(CC(=O)CCc1ccc(O)c(OC)c1)SC[C@H](NC(=O)[C@@H](N)CCC(=O)O)C(=O)N[C@H](C(=O)O)C(C)C (stereo partly drawn) [MLY-17, Glu(alpha)-Cys(6-shogaol)-Val] | – | 45.13 ±1.96 | >M13 (35%~70%) | – | – | –
CCCCCC(CC(=O)CCc1ccc(O)c(OC)c1)SC[C@H](NC(=O)[C@@H](N)CC(=O)O)C(=O)NCC(=O)O (stereo partly drawn) [MLY-18, Asp(alpha)-Cys(6-shogaol)-Gly] | – | 112.31 ± 7.28 | <M13 (>90%) | – | – | >90
CCCCCC(CC(=O)CCc1ccc(O)c(OC)c1)SC[C@H](NC(=O)[C@@H](N)CC(=O)O)C(=O)N[C@@H](C)C(=O)O (stereo partly drawn) [MLY-19, Asp(alpha)-Cys(6-shogaol)-Ala] | – | 67.04 ± 11.04 | >M13 (35%~70%) | – | – | –
